Reference: US6335465B1, “Sterilized 5-aminolevulinic acid” (Dusa Pharmaceuticals, Inc., priority 1997, dated 2002)

Tests used:
Format in all cases: physicochemical
[1] = Color of crystalline ALA hydrochloride in sealed vials after gamma irradiation; settings: crystals in sealed 60 ml glass vials after gamma radiation at the target dose (0, 15 or 30 KGys)
Description: ALA hydrochloride salt was obtained from Sochinaz, S.A., Vionnez, Switzerland. 1.65 grams of ALA hydrochloride salt was placed into 60 ml glass vials. 360 vials of crystalline non-irradiated ALA were prepared. of these, 225 vials were sealed under ambient conditions,and were irradiated with gamma radiation as shown in Table 1. Crystalline ALA was first micronized by pulverizing into fine particles a few μm in diameter by a jet mill by Micro-Macinazione, S.A. to determine if further reducing the crystalline size would have any effect on the color of the irradiated ALA. After micronization, 1.65 grams of ALA hydrochloride salt was placed into 60 ml glass vials. A total of 270 vials of crystalline non-irradiated ALA were prepared.

[2] = Storage stability of gamma irradiated ALA in the sealed bottle; settings: despite the yellow color of the irradiated crystals
Excerpt: The present invention is based on the finding that sterile ALA can be made and prepared well in advance of its final use, despite the extreme degradation generally found with ALA as noted above.

[3] = Comparison of irradiated and non-irradiated ALA (spectroscopic, chromatographic, solution pH, solubility profile, calorimetry; FIGS. 2-14); settings: solution pH or solubility profile, except for the color
Excerpt: This is explained more fully below with respect to FIGS. 2 to 14.
Although not intending to be bound by any theory, it appears that the color imparted by irradiation is due to F-centers.
The calorimetric measurements of FIGS. 2 and 3 indicate that any major structural differences are present in quantities of less than 1% of the total ALA amount, or that the type of any structural modification is such that the sensitivity of the calorimetric assay to the change is below the capacity of the instrumentation.
Spectral reflectance as shown in FIGS. 4 and 8-10 is very sensitive to spectral differences at or near the surface, while photoacoustic spectroscopy (“PAS”) as shown in FIGS. 5-7 is sensitive to changes both at the surface and the interior of the crystal.
Subsequent analysis of the type described above with respect to FIGS. 2-14, confirmed that there was no discernible difference in structure or pharmacological activity between the irradiated examples and the non-irradiated control comparative examples.

[4] = Degradation of crystalline ALA under gamma radiation; settings: gamma radiation dose of 25 kilograys or greater
Excerpt: This is significant, in that the United States Food and Drug Administration's (“FDA”) level of gamma irradiation for “overkill” is 25 kilograys. This is a level at which the FDA presumes, without evidence, that virtually all microorganisms have been killed.

color [1] | SMILES | further results
yellow | NCC(=O)CCC(=O)O [Example 1, 5-aminolevulinic acid] | 
off white | NCC(=O)CCC(=O)O [Comp. Ex. 3, 5-aminolevulinic acid] | 
yellow | NCC(=O)CCC(=O)O [Example 6, 5-aminolevulinic acid] | 
off white | NCC(=O)CCC(=O)O [Comp. Ex. 4, 5-aminolevulinic acid] | 
off white | NCC(=O)CCC(=O)O [Comp. Ex. 2, 5-aminolevulinic acid] | 
 | NCC(=O)CCC(=O)O [irradiated crystalline ALA, 5-aminolevulinic acid] | degradation after irradiation [2]: had not been degraded; chemical properties versus non-irradiated ALA [3]: has not been distinguished in any chemical property from non-irradiated ALA
yellow | NCC(=O)CCC(=O)O [Example 9, 5-aminolevulinic acid] | 
off white | NCC(=O)CCC(=O)O [Comp. Ex. 1, 5-aminolevulinic acid] | 
yellow | NCC(=O)CCC(=O)O [Example 10, 5-aminolevulinic acid] | 
yellow | NCC(=O)CCC(=O)O [Example 3, 5-aminolevulinic acid] | 
yellow | NCC(=O)CCC(=O)O [Example 8, 5-aminolevulinic acid] | 
yellow | NCC(=O)CCC(=O)O [Example 4, 5-aminolevulinic acid] | 
yellow | NCC(=O)CCC(=O)O [Example 7, 5-aminolevulinic acid] | 
yellow | NCC(=O)CCC(=O)O [Example 5, 5-aminolevulinic acid] | 
 | NCC(=O)CCC(=O)O [crystalline ALA, 5-aminolevulinic acid] | degradation of the ALA at high gamma dose [4]: without detectable degradation
yellow | NCC(=O)CCC(=O)O [Example 2, 5-aminolevulinic acid] | 
